# In US20230270148A1, “BITTER BLOCKERS AND RELATED METHODS OF USE” (Conagen Inc., priority 2020, published 2023):
# Experiments:
# [1] = tested on: peach-flavored energy drink (caffeine, B vitamins); assay: Sensory evaluation: bitterness reduction of a peach-flavored energy drink; type: in vivo; conditions: dosage per sample
# Method: (§1) The bitterness blocker candidates listed in Table 1 were prepared into a 1% sample solution with propylene glycol and heated to ensure complete solubilization. […] A trained sensory evaluator was asked to estimate the perceived bitterness reduction against the control, as well as to provide comments on how the addition of the individual sample solution modulated the taste and mouth feel profile of the resulting peach-flavored energy drink.
# dark roast coffee = assay: Sensory evaluation: bitterness reduction of dark roast coffee; type: in vivo; conditions: dosage 50 or 100 ppm per sample
# Method: as §1, with “dark roast coffee.” for “peach-flavored energy drink.”
# caffeine in water = assay: Two-alternative forced choice (2AFC) difference test; type: in vivo
# Method: The bitter blocker candidates BB09, BB11, and BB13 were subject to a two-alternative forced choice (2AFC) difference test wherein panelists were presented Control Caffeine solutions and Test solutions containing caffeine and one of three bitterness blocker candidates (BB09, BB 11, or BB13). Panelists were asked to evaluate the two samples and answer the question, “which one is more hitter?”
# BB09 and BB11 were tested first. Three ounces of control (caffeine in water), BB09 in caffeine water, and BB11 in caffeine water were presented at room temperature in separate plastic souffle cups labeled with 3-digit codes. Ten sensory trained panelists evaluated each sample in three repetitions with a 10 minute break between repetitions. Panelists then completed the 2AFC. Data was collected on EveQuestion and analyzed on XLSTAT. Testing was conducted at Sensations Research according to FEMA guidelines.
# BB13 was tested separately. Two ounces of control (caffeine in water), BB13 in caffeine water were presented at room temperature in separate plastic souffle cups labeled with 3-digit codes. Fifteen participants evaluated each sample in two repetitions with a 10 minute break between repetitions for a total of thirty evaluations as per the FEMA guidelines. Panelists then completed the 2AFC to identify the more bitter sample. Data was collected and analyzed on Compusense.
# [2] = tested on: bitter-responsive human taste bud tissue-derived cells (hTBEC); assay: ATP secretion detection assay (luminescence); type: cell-based
# Method: (§2) The bitter blocker candidates were further characterized using bitter-responsive human taste bud tissue-derived cells (hTBEC) platforms and bioassays. Bitter-responsive hTBECs were treated with hitter blocker candidates and various bitter agonists to assess the efficacy of each bitter blocker candidate in reducing the bitterness of each of the various bitter agonists.
# One industry standard bitter agonist was used as a control (L-Praziquantel), and five bitter blocker controls were used (Senomyx BB68, STX-001, sodium gluconate, eridictyol, and homoeridictyol).
# BB09, BB11, and BB13 were first tested at various concentrations in combination with 100 μM Dextromethorphan-HBr.
# Next, bitter blocker concentration ranges were narrowed (100 μM-1,000 μM) and compared to a fixed concentration of stimulus. […] BB13 was evaluated further by real time ATP secretion detection in pooled hTBEC 66 cells treated with 300 μM Theobromine.
# Each culture was treated with BB09, BB11, BB13, STX001, or Senomyx BB68, as well as either Dextromethorphan-HBr at 1000 μM (FIGS. 18A-18C), Theobromine at 1,000 μM (FIGS. 19A-19C), Rebaudioside A at 1 mM (FIGS. 20A-20C), or Caffeine at 3 mM (FIGS. 21A-21C).
# [3] = tested on: individual donor-derived hTBECs; assay: Cell calcium mobilization assay; type: cell-based, human
# Method: as §2
# Calcium mobilization response following treatment of 100 μM Dextromethorphan-HBr, 3000 μM Theobromine, and 3 mM Caffeine was evaluated in individual donor-derived hTBECs.
# [4] = of thirty evaluations (15 participants, 2 repetitions)
smiles,measurement,setting,value
"O=C1C[C@@H](c2ccc(O)c(O)c2)Oc2c1c(O)cc(O)c2[C@@H]1O[C@H](CO)[C@@H](O)[C@H](O)[C@H]1O [BB13, Eriodictyol-8-C-β-glucoside]",Comments,[1],Excellent bitter blocking
same,Comments,dark roast coffee,Very smooth with nice upfront
same,significance of bitterness difference control vs sample,caffeine in water; 90% and 95% confidence interval (FIG. 11),control sample was significantly more bitter
same,panelists' description of samples,caffeine in water; blocker in caffeine water,"initial sweetness that mask the bitterness, less lingering bitterness, and having a nutty taste"
same,evaluations identifying the sample containing the blocker as more bitter,caffeine in water; [4],three
same,evaluations selecting control as more bitter,caffeine in water; [4],Twenty-seven
same,inhibition of luminescence signal from Dextromethorphan-HBr,"[2]; 100 μM Dextromethorphan-HBr, blocker 100 μM-1,000 μM, upper concentrations, individual donor-derived hTBECs (FIG. 14A)",inhibited luminescence signal
same,inhibitory activity against Dextromethorphan-HBr (ATP secretion),"[2]; 100 μM Dextromethorphan-HBr, blocker 1 mM, all three hTBEC cultures (FIG. 22A)",consistently showed inhibitory activity
same,inhibition of luminescence activity of Dextromethorphan-HBr (ATP secretion),"[2]; 100 μM Dextromethorphan-HBr, various blocker concentrations (FIG. 12)",able to inhibit
same,inhibition of luminescence signal from L-Praziquantel,"[2]; 400 μM L-Praziquantel, blocker 100 μM-1,000 μM, upper concentrations, individual donor-derived hTBECs (FIG. 14B)",inhibited luminescence signal
same,inhibitory activity against L-Praziquantel (ATP secretion),"[2]; 400 μM L-Praziquantel, blocker 1 mM, all three hTBEC cultures (FIG. 24)",consistently showed inhibitory activity
same,inhibition of the L-Praziquantel response (ATP secretion),"[2]; 400 μM L-Praziquantel, pooled donor-derived hTBEC (FIG. 13)",showed inhibition
same,inhibitory activity against Rebaudioside A (ATP secretion),"[2]; 1 mM Rebaudioside A, blocker 1 mM, all three hTBEC cultures (FIG. 23A)",consistently showed inhibitory activity
same,real time Rebaudioside A-induced ATP secretion,"[2]; 1 mM Rebaudioside A, blocker 1,000 μM, pooled hTBEC 56 cultures (FIG. 17)",attenuated
same,inhibitory activity against Theobromine (ATP secretion),"[2]; 1,000 μM Theobromine, blocker 1 mM, all three hTBEC cultures (FIG. 22B)",consistently showed inhibitory activity
same,inhibitory activity against Caffeine (ATP secretion),"[2]; 3 mM Caffeine, blocker 1 mM, all three hTBEC cultures (FIG. 23B)",consistently showed inhibitory activity
same,inhibition of Rebaudioside A-induced ATP secretion,"[2]; 3 mM Rebaudioside A, pooled hTBEC 56 cultures, blocker 100, 300 or 1,000 μM (FIG. 16)",strongest inhibition
same,inhibition of the bitter agonists (ATP secretion),"[2]; hTBEC 66, hTBEC 56, hTBEC Donor H, Dextromethorphan-HBr at 1000 μM, Theobromine 1,000 μM, Rebaudioside A 1 mM or Caffeine 3 mM (FIGS. 18-21)",most consistent inhibition
same,real time ATP secretion response to Theobromine,"[2]; pooled hTBEC 66 cells, 300 μM Theobromine, blocker at 1 mM (FIG. 15)",attenuated the Theobromine-stimulated signal
same,inhibition of calcium mobilization induced by Dextromethorphan-HBr,"[3]; 100 μM Dextromethorphan-HBr, blocker 0.3 μM to 1,000 μM, at high concentrations (FIG. 25)",inhibited calcium mobilization
same,inhibition of calcium mobilization induced by Caffeine,"[3]; 3 mM Caffeine, blocker 1,000 μM, hTBEC 56 cells (FIG. 27)",inhibited calcium mobilization
same,inhibition of calcium mobilization induced by Theobromine,"[3]; 3000 μM Theobromine, blocker 1 μM to 3,000 μM, at high concentrations (FIG. 26)",inhibited calcium mobilization
